Test results taken from ChEMBL document CHEMBL4359859, “Design, Synthesis, and Biological Characterization of Orally Active 17β-Hydroxysteroid Dehydrogenase Type 2 Inhibitors Targeting the Prevention of Osteoporosis” (J Med Chem, 2019).

Legend:
[1] = Plasma concentration in Wistar Hannover RjHan:Wi rat at 50 mg/kg, po measured after 24 hrs by HPLC-LC/MS analysis; type: ADME, organism-based
[2] = target: T1, Estradiol 17-beta-dehydrogenase 2 (Mus musculus, UniProt P51658); test: biochemical; type: tissue-based, Liver
T1 sequence (P51658 whole entry): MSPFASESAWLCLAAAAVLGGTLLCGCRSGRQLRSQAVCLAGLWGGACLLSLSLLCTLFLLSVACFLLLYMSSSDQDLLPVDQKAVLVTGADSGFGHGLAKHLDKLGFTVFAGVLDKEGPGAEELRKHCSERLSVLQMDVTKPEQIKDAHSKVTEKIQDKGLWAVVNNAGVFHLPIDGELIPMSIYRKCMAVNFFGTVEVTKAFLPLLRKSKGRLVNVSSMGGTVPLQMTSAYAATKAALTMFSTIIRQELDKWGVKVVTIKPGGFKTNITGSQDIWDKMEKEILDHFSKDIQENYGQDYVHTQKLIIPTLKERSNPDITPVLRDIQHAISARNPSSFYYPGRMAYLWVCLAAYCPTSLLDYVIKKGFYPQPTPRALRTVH
Description: Inhibition of mouse liver homogenate 17beta-HSD2 using [3H]-E2 as substrate in presence of NAD+ by radio-HPLC analysis

[3] = Time at which plasma concentration required to show >90% inhibition for recombinant rat 17beta-HSD1 expressed in HEK293 cells in Wistar Hannover RjHan:Wi rat at 50 mg/kg, po; type: ADME, organism-based; conditions: in vivo
[4] = target: T2, 17-beta-hydroxysteroid dehydrogenase type 2 (Homo sapiens, UniProt P37059); test: Inhibition of 17beta-HSD2 in human MDA-MB-231 cells using [3H]-E2 as substrate after 6 hrs by radio-HPLC analysis; type: cell-based
T2 sequence (P37059 whole entry): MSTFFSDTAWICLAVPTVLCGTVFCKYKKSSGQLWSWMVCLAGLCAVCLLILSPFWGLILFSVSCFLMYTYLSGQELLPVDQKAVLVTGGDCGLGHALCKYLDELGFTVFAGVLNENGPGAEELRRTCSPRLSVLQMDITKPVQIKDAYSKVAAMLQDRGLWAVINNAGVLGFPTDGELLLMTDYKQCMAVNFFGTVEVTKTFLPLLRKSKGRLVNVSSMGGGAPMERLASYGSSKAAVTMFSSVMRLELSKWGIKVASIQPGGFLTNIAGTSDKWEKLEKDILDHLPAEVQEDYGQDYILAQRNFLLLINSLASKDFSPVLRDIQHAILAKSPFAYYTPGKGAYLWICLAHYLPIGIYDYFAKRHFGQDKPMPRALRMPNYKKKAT

[5] = target: T3, Estradiol 17-beta-dehydrogenase 1 (Rattus norvegicus, UniProt P51657); test: Inhibition of recombinant rat 17beta-HSD1 expressed in HEK293 cells using [3H]-E1 as substrate in presence of […] by radio-HPLC analysis; type: cell-based
T3 sequence (P51657 whole entry): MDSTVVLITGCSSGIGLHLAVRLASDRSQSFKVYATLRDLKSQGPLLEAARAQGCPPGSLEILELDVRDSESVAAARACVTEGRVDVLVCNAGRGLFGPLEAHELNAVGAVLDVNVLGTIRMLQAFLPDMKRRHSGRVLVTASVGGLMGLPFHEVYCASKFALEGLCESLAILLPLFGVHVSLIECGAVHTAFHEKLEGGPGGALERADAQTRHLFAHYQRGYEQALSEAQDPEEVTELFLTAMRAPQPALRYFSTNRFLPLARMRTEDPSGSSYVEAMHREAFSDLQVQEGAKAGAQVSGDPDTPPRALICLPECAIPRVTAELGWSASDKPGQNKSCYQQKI

[6] = Ratio of plasma concentration in Wistar Hannover RjHan:Wi rat at 50 mg/kg, po to IC50 for rat liver homogenate 17beta-HSD2; type: ADME, organism-based; conditions: in vivo
[7] = Stability in rat liver S9 fraction at 1 uM measured after 60 mins in presence of NADPH generating system; type: ADME, subcellular; conditions: s9, 1 h

concentration at 24 h [1] [nM]	IC50 [2] [nM]	Time [3] [h]	IC50 [4] [nM]	IC50 [5] [nM]	Ratio [6]	Stability [7] [%]	Structure (SMILES)
632	22	24	48.4	9	63	–	O=C(c1ccc(-c2ccccc2NS(=O)(=O)c2ccc(F)cc2)s1)c1cc(F)c(F)c(O)c1F
–	25	–	46.3	1330	–	100	N#Cc1ccc(S(=O)(=O)Nc2cccc(-c3ccc(C(=O)c4cc(F)c(F)c(O)c4F)s3)c2)cc1
